In ChEMBL document CHEMBL1132553, “Design, synthesis, and biological evaluation of matrix metalloproteinase inhibitors derived from a modified proline scaffold” (J Med Chem, 1999):

Assays:
Interstitial collagenase = target: T1, Interstitial collagenase (Homo sapiens, UniProt P03956); experiment: In vitro inhibition of human recombinant collagenase-1 (Matrix metalloprotease-1, MMP-1)
T1 sequence (P03956 whole entry): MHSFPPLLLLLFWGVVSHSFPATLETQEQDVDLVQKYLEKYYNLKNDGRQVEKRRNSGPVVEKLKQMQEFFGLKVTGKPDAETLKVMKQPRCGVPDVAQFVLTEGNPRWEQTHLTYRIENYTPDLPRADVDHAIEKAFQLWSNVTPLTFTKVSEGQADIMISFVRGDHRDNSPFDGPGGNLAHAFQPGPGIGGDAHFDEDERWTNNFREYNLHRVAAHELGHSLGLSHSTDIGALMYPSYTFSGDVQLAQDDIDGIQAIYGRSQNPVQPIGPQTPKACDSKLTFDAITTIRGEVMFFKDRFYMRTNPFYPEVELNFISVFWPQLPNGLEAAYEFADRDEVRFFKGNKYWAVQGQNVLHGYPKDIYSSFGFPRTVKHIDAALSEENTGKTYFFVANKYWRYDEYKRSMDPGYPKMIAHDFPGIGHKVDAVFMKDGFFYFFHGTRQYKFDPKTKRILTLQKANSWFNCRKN

Collagenase 3 = Collagenase 3 (Homo sapiens, UniProt P45452); experiment: In vitro inhibition of human recombinant collagenase-3 (Matrix metalloprotease-13)
Stromelysin-1 = Stromelysin-1 (Homo sapiens, UniProt P08254); experiment: In vitro inhibition activity of human recombinant stromelysin (Matrix metalloprotease-3)
[1] = target: 72 kDa type IV collagenase (Homo sapiens, UniProt P08253)
Description: In vitro inhibitory activity against gelatinase-A (matrix metalloprotease-2).

Matrilysin = target: T2, Matrilysin (Homo sapiens, UniProt P09237); experiment: In vitro inhibition of matrilysin (Matrix metalloprotease-7, MMP-7)
T2 sequence (P09237 whole entry): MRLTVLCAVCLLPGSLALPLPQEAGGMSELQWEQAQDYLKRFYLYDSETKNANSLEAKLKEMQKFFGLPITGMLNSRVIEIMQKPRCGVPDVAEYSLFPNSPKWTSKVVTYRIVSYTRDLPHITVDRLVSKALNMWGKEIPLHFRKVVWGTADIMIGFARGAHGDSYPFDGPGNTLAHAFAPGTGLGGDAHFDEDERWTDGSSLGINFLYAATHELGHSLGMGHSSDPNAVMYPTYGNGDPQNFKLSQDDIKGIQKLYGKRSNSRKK

Rattus norvegicus [2] = organism: Rattus norvegicus; experiment: In vitro percent permeability into rat ileum; Range is 2-5; assay type: ADME; details: in vivo
Rattus norvegicus [3] = organism: Rattus norvegicus; experiment: In vitro percent permeability into rat ileum; Range is 29-35; assay type: ADME; details: in vivo
Rattus norvegicus [4] = organism: Rattus norvegicus; experiment: In vitro percent permeability into rat ileum; Range is 28-36; assay type: ADME; details: in vivo
Rattus norvegicus [5] = organism: Rattus norvegicus; experiment: In vitro percent permeability into rat ileum; nd indicates not detected; assay type: ADME; details: in vivo
Rattus norvegicus [6] = organism: Rattus norvegicus; experiment: In vitro percent permeability into rat ileum; Range is 15-18; assay type: ADME; details: in vivo
Rattus norvegicus [7] = organism: Rattus norvegicus; experiment: In vitro percent permeability into rat ileum; Range is 50-68; assay type: ADME; details: in vivo
Rattus norvegicus [8] = organism: Rattus norvegicus; experiment: In vitro percent permeability into rat ileum; nt indicates not detected; assay type: ADME; details: in vivo
Rattus norvegicus [9] = organism: Rattus norvegicus; experiment: In vitro percent permeability into rat ileum; Range is 46-66; assay type: ADME; details: in vivo
Rattus norvegicus [10] = organism: Rattus norvegicus; experiment: In vitro percent permeability into rat ileum; Range is 10-19; assay type: ADME; details: in vivo
Rattus norvegicus [11] = organism: Rattus norvegicus; experiment: In vitro percent permeability into rat ileum; insol indicates not soluble in aqueous buffer; assay type: ADME
Rattus norvegicus [12] = organism: Rattus norvegicus; experiment: In vitro percent permeability into rat ileum; Range is 13-19; assay type: ADME; details: in vivo
Rattus norvegicus [13] = organism: Rattus norvegicus; experiment: In vitro percent permeability into rat ileum; Range is 10-17; assay type: ADME; details: in vivo
Rattus norvegicus [14] = organism: Rattus norvegicus; experiment: In vitro percent permeability into rat ileum; Range is 12-15; assay type: ADME; details: in vivo
Rattus norvegicus [15] = organism: Rattus norvegicus; experiment: In vitro percent permeability into rat ileum; Range is 14-17; assay type: ADME; details: in vivo
Rattus norvegicus [16] = organism: Rattus norvegicus; experiment: In vitro percent permeability into rat ileum; assay type: ADME; details: in vivo
[17] = In vitro percent permeability into rat ileum; Range is 23-42; assay type: ADME, tissue-based

Chain of 72 kDa type IV collagenase (P08253 whole entry): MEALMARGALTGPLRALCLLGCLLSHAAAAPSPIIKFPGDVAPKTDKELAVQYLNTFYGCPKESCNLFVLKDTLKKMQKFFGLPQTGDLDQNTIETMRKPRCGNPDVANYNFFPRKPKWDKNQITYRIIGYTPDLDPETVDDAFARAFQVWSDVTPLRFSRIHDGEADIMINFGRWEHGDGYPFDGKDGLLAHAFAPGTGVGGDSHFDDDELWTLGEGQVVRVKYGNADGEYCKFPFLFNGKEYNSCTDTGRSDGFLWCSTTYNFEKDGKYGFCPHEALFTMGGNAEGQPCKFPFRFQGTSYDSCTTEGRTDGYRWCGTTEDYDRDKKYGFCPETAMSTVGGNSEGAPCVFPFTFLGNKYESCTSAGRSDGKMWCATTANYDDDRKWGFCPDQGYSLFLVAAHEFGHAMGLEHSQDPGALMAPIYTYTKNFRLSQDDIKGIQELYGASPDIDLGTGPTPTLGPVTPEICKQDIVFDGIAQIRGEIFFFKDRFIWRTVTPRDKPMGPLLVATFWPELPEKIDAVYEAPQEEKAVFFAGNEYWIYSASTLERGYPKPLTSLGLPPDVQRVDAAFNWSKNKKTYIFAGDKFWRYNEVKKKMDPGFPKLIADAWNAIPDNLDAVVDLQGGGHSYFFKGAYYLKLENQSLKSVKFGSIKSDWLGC
Chain of Stromelysin-1 (P08254 whole entry): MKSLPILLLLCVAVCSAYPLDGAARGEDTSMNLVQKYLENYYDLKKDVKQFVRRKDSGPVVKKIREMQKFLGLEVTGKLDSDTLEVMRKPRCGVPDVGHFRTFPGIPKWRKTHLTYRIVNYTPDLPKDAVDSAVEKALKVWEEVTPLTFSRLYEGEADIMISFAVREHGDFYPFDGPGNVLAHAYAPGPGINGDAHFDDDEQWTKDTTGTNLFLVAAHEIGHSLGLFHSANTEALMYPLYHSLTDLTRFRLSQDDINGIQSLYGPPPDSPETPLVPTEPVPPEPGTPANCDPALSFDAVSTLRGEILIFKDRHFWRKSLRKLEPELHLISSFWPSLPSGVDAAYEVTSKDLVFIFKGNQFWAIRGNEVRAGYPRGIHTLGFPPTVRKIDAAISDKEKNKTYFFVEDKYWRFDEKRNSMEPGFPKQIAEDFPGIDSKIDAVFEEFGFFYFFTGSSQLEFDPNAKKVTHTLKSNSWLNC

Structure (SMILES)	IC50 (Interstitial collagenase)	IC50 (Collagenase 3)	IC50 (Stromelysin-1)	IC50 [1]	IC50 (Matrilysin)	further results
COCCOc1ccc(S(=O)(=O)N2CC(NOC)C[C@@H]2C(=O)NO)cc1 (stereo partly drawn)	–	8 nM	222 nM	11 nM	6720 nM	–
CC(C)(C)O/N=C1/C[C@H](C(=O)NO)N(S(=O)(=O)c2ccc(Oc3ccncc3)cc2)C1	26 nM	< 0.4 nM	5 nM	< 0.4 nM	785 nM	–
O=C(NO)[C@H]1C/C(=N/Oc2ccccc2)CN1S(=O)(=O)c1ccc(Oc2ccncc2)cc1	32 nM	0.4 nM	5 nM	–	785 nM	Absorption (Rattus norvegicus [5]): None detected
CONC1C[C@H](C(=O)NO)N(S(=O)(=O)c2ccc(Oc3ccccc3)cc2)C1 (stereo partly drawn)	86 nM	< 0.4 nM	6 nM	< 0.4 nM	1790 nM	–
CO/N=C1/C[C@H](C(=O)NO)N(S(=O)(=O)c2ccc(Oc3ccncc3)cc2)C1	–	< 0.2 nM	5 nM	0.3 nM	922 nM	Absorption (Rattus norvegicus [7]): 68%
CCCCOc1ccc(S(=O)(=O)N2C/C(=N\N3CCNCC3)C[C@@H]2C(=O)NO)cc1	184 nM	< 1 nM	3 nM	–	343 nM	Absorption (Rattus norvegicus [10]): 19%
CC(C)(C)O/N=C1/C[C@H](C(=O)NO)N(S(=O)(=O)c2ccc(Oc3ccc(F)cc3)cc2)C1	24 nM	0.2 nM	< 1 nM	< 0.4 nM	1030 nM	Absorption (Rattus norvegicus [11]): Insoluble
CCCCOc1ccc(S(=O)(=O)N2C/C(=N\OCC(C)C)C[C@@H]2C(=O)NO)cc1	75 nM	< 0.1 nM	12 nM	< 0.4 nM	420 nM	–
C=C1C[C@H](C(=O)NO)N(S(=O)(=O)c2ccc(Oc3ccccc3)cc2)C1	15 nM	< 0.4 nM	14 nM	0.4 nM	53 nM	–
CCCCOc1ccc(S(=O)(=O)N2C/C(=N\N3CCOCC3)C[C@@H]2C(=O)NO)cc1	293 nM	< 1 nM	2 nM	–	196 nM	Absorption (Rattus norvegicus [16]): 1%
CCCCOc1ccc(S(=O)(=O)N2C/C(=N\OCc3ccccc3)C[C@@H]2C(=O)NO)cc1	127 nM	0.1 nM	17 nM	< 0.4 nM	490 nM	–
C=C1C[C@H](C(=O)NO)N(S(=O)(=O)c2ccc(OCCCC)cc2)C1	329 nM	0.7 nM	15 nM	0.8 nM	1080 nM	–

Continued, in another order:

IC50 (Interstitial collagenase)	IC50 (Collagenase 3)	IC50 (Stromelysin-1)	IC50 [1]	IC50 (Matrilysin)	Structure (SMILES)	further results
255 nM	3 nM	20 nM	4 nM	5230 nM	COc1ccc(S(=O)(=O)N2CC(NOC(C)(C)C)C[C@@H]2C(=O)NO)cc1 (stereo partly drawn)	–
119 nM	0.3 nM	5 nM	0.2 nM	307 nM	CCCCOc1ccc(S(=O)(=O)N2C/C(=N\O)C[C@@H]2C(=O)NO)cc1	Absorption (Rattus norvegicus [2]): 5%
13 nM	< 1 nM	2 nM	< 0.4 nM	381 nM	CCCOc1ccc(S(=O)(=O)N2C/C(=N\OC)C[C@@H]2C(=O)NO)cc1	–
17 nM	0.2 nM	5 nM	0.2 nM	–	COc1ccc(S(=O)(=O)N2C/C(=N\O)C[C@@H]2C(=O)NO)cc1	Absorption (Rattus norvegicus [3]): 35%
26 nM	0.3 nM	1 nM	< 1 nM	89 nM	CCCCOc1ccc(S(=O)(=O)N2C/C(=N\OC)C[C@@H]2C(=O)NO)cc1	Absorption (Rattus norvegicus [4]): 36%
3 nM	< 0.4 nM	2 nM	< 0.4 nM	60 nM	CO/N=C1/C[C@H](C(=O)NO)N(S(=O)(=O)c2ccc(Oc3ccccc3)cc2)C1	Absorption (Rattus norvegicus [6]): 18%
3 nM	0.8 nM	< 1 nM	< 0.4 nM	< 24 nM	CO/N=C1/C[C@H](C(=O)NO)N(S(=O)(=O)c2ccc(Oc3ccc(F)cc3)cc2)C1	–
74 nM	0.4 nM	11 nM	0.5 nM	294 nM	CCCCOc1ccc(S(=O)(=O)N2C/C(=N\OC(C)(C)C)C[C@@H]2C(=O)NO)cc1	Absorption (Rattus norvegicus [8]): None detected
1550 nM	11 nM	69 nM	9 nM	> 9990 nM	C=C1C[C@H](C(=O)NO)N(S(=O)(=O)c2ccc(OCCOC)cc2)C1	–
90 nM	4 nM	–	–	12300 nM	C=C1C[C@H](C(=O)NO)N(S(=O)(=O)c2ccc(OC)cc2)C1	Absorption (Rattus norvegicus [9]): 66%
109 nM	< 0.4 nM	15 nM	0.5 nM	612 nM	COCCOc1ccc(S(=O)(=O)N2C/C(=N\OC)C[C@@H]2C(=O)NO)cc1	–
20 nM	< 0.5 nM	9 nM	0.7 nM	263 nM	COc1ccc(S(=O)(=O)N2C/C(=N\OC(C)(C)C)C[C@@H]2C(=O)NO)cc1	Absorption (Rattus norvegicus [12]): 19%
39 nM	0.5 nM	2 nM	< 0.4 nM	39 nM	CCCCOc1ccc(S(=O)(=O)N2C/C(=N\OCC)C[C@@H]2C(=O)NO)cc1	Absorption (Rattus norvegicus [13]): 17%
212 nM	3 nM	19 nM	5 nM	3390 nM	CONC1C[C@H](C(=O)NO)N(S(=O)(=O)c2ccc(OC)cc2)C1 (stereo partly drawn)	Absorption (Rattus norvegicus [14]): 15%
790 nM	2 nM	21 nM	1 nM	2080 nM	CCCCOc1ccc(S(=O)(=O)N2CC(NOC)C[C@@H]2C(=O)NO)cc1 (stereo partly drawn)	Absorption (Rattus norvegicus [15]): 17%
155 nM	1 nM	16 nM	2 nM	2550 nM	C=C1C[C@H](C(=O)NO)N(S(=O)(=O)c2ccc(OCCC)cc2)C1	–
22 nM	0.7 nM	16 nM	0.3 nM	1060 nM	CCOc1ccc(S(=O)(=O)N2C/C(=N\OC)C[C@@H]2C(=O)NO)cc1	Absorption [17]: 42%
